Where a SMILES comes first, the peptide text is derived from it. The star is where a group is joined. Lauroyl = CCCCCCCCCCCC(=O)*
Experiments:
[1] = molecular target: T1, GST-E2F-1 and GST-DP-1 binding to 32P-labeled E2F probe (Homo sapiens, UniProt Q01094+Q14186); assay: Assay of E2F-DNA binding-inhibiting activity by gel shift assay; conditions: 30° C. 30 minutes
T1 construct: a part of human E2F-1 (101-st to 227-th amino acid residues from the N terminus) and GST; a part of the human DP-1 (84-th to 241-th amino acid residues from the N terminus) with GST; made in house; host or cells: Escherichia coli XL1-blue
T1 sequence (Q01094 101-227): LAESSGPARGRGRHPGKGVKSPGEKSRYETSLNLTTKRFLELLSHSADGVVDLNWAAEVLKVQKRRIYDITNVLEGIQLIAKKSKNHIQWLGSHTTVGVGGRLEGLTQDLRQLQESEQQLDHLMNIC
T1 sequence (Q14186 84-241): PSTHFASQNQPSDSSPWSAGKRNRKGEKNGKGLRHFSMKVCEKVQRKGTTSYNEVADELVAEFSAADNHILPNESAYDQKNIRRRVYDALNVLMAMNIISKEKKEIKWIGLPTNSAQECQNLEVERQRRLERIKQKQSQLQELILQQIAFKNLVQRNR
Experimental: Assay of E2F-DNA Binding-inhibiting Activity by Gel Shift Assay (1-1) Expression of a Fusion Protein of E2F-1 and DP-1 in Escherichia Coli
So as to assay the activity to inhibit E2F-DNA binding, a fusion protein of glutathione-S-transferase (abbreviated as GST hereinbelow) with the genes of human E2F-1 [Cell, 70, 337 (1992); Cell, 70, 351 (1992)] and human DP-1 [Genes Dev., 7, 1850 (1993)] was prepared.
(1-2) Gel Shift Experiments by Using GST-E2F-1 and GST-DP-1
The following two oligonucleotides including the E2F binding sequence, which are complementary sequences to each other;
were added individually at a concentration of 10 μM into a solution comprising 10 mM MgCl2, 5 mM DTT and 50 mM Tris-HCl(pH 7.5), for treatment at 75° C. for 10 minutes, and the resulting solutions were left to stand at ambient temperature while gradually lowering the temperature for annealing. The resulting double-stranded DNA solution (10 μl) was kept in a reaction solution (30 μL) [50 mM Tris-HCl buffer(pH 7.5) containing 10 mM MgCl2, 5 mM dithiothreitol (DTT) 10 units of T4 polynucleotide kinase (manufactured by TaKaRa), 0.2 mCi [γ-^32P]ATP (7,000 Ci/mmol ATP, manufactured by Amersham Co.)] at 37° C. for 60 minutes, to label the 5′ terminus. By adding 0.5 M EDTA (2 μl) to the reaction solution, the reaction was terminated, and thereafter, unreactive [γ-^32P]ATP was removed by using a NickColumn G-50 (manufactured by Pharmacia Co.), to recover E2F probe. Into 20 mM HEPES buffer(pH 7.4)(20 μl) containing 40 mM KCl, 1 mM MgCl2, 0.1 mM EDTA, 0.1% Nonidet P-40, and 1 mM DTT were added 0.1 pmol of ^32P-labeled E2F probe, 100 ng of GST-E2F-1, 100 ng of GST-DP-1, 2 μg of calf thymus DNA and 0 to a 100 μM test compound, for reaction at 30° C. for 30 minutes. After the reaction, the reaction solution was electrophoresed by using 0.5×TBE [2.5 mM Tris-borate buffer, pH 8.3, 0.1 mM EDTA] as an electrophoresis buffer in 4% polyacrylamide gel. GST-E2F-1 and GST-DP-1 proteins were bound to the labeled E2F probe, so that the mobility thereof was reduced. Accordingly, the proteins were detected as upper bands. After electrophoresis, the gel was dried to assay the radioactivity in bands shifting upward, by using an image analyzer Type BAS2000 (manufactured by Fuji Film Co.). The radioactivity in each lane was assayed, to calculate the inhibition ratio, on the basis of the radioactivity of a sample with no test compound contained in the reaction system, according to the following equation.
A: radioactivity in a band shifted in the absence of any test compound
B: radioactivity in a band shifted in the presence of a test compound.

[2] = tested on: E2F responsive transcription (human cdc2 promoter-luciferase reporter pcdc21uc2); assay: Assay of activity suppressing E2F responsive transcription (1): human cdc2 promoter luciferase reporter in Saos-2; assay type: cell-based; conditions: 100 μM, electroporation, 40 hours, luciferase activity corrected with protein concentration
Experimental: Assay of Activity Suppressing E2F Responsive Transcription (1)
The promoter sequence of human cdc2 gene [EMBO J., 11, 1797 (1992)], which has been reported to have an endogenous E2F responsive sequence and to effect an E2F dependent transcription, was bound to the upstream of the firefly luciferase gene, which was designated as reporter gene.
Two micrograms (2 μg) of the plasmid pcdc21uc2 thus prepared were introduced, together with a test compound (100 μM), into 1×10^6 cells of Saos-2 by electroporation, in the same manner as in the Test Example 2. As in the Test Example 2, the resulting cells were inoculated into a cell culture dish of a 60-mm diameter for culturing in the presence of 5% CO2 at 37° C. for 40 hours, and thereafter, the cells were peeled off and recovered by centrifugation. […] The luciferase activity was assayed as follows; 300 μl of a substrate solution [25 mM glycylglycine buffer(pH 7.8), 15 mM MgSO4, 5 mM ATP, and 0.33 mM luciferin] was automatically injected into a luminometer LB953 (manufactured by Beltold Co.), to assay the luminescence for 10 seconds, which was defined as luciferase activity. […] Based on the luciferase activity (after correction with protein concentration) of a sample with no test compound contained in the reaction system, the inhibition ratio was calculated by the following equation. […]

[3] = tested on: human osteosarcoma-derived cell line Saos-2; assay: Assay of growth inhibiting activity on Saos-2 cell (test compound introduced by electric pulse); assay type: cell-based; conditions: 100 μM, 40 hours culture, viable cell number
Experimental: Assay of Growth Inhibiting Activity on Saos-2 cell
1×10^6 cells of a human osteosarcoma-derived cell line Saos-2 (ATCC HTB85) cultured in an RPMI 1640 culture medium containing 10% fetal calf serum (manufactured by Nissui Co.; referred to as medium A hereinbelow) in the presence of 5% CO2 at 37° C. were suspended in 50 μl of K-PBS buffer [137 mM KCl, 2.7 mM NaCl, 8.1 mM Na2HPO4, 1.5 mM KH2PO4, and 4 mM MgCl2], followed by addition of a test compound appropriately diluted with K-PBS to a final concentration of 100 μM. The suspension was transferred on a 0.2-cm width cuvette (manufactured by BIO-RAD Laboratories) for loading an electric pulse (conditions: an electric voltage=3 kV/cm, a pulse width=100 μ seconds, a pulse interval=one second, a pulse number=two) by using a Shimadzu cell fusion system SSH-1 [manufactured by Shimadzu Corporation]. After leaving the cuvette to stand for 10 minutes, the cells were recovered and suspended in 3 ml of the medium A, for inoculation on a cell culture dish of a 60-mm diameter(manufactured by Iwaki Glass Co.). […] Based on the cell number with no test compound under load of an electric pulse, the inhibition ratio was calculated by the following equation. […]

[4] = tested on: E2F dependent transcription (luciferase reporter cell strain E2F-1/Saos-2-1); assay: Assay of activity suppressing E2F responsive transcription (2): reporter cell strain E2F-1/Saos-2-1, Lipofect AMINE; assay type: cell-based, human; conditions: luciferase activity corrected with protein concentration
Text: Assay of Activity Suppressing E2F Responsive Transcription (2)
Into the XhoI- and HindIII sites of luciferase reporter vector pluc2 with neomycin (G418) resistant gene [Eur. J. Haematol., 52, 73 (1994)] were inserted an SphI-HindIII fragment composed of the 200 base pairs in the core promoter region of the SV40 initial gene 128-0/5243-5171, base number according to “DNA Tumor Viruses, Molecular Biology of Tumor Viruses, 2nd Ed., Part 2 Revised, Edited by J. Tooze, Cold Spring Harbor Laboratory Press, 1982” and a fragment produced by annealing the following two synthetic oligonucleotides;
and then inserting the annealed product into the XhoI and Asp718 sites of the constructed luciferase vector pSE01uc2, reporter plasmid pE2FII-1luc2 was constructed.
By the following method, the plasmid was introduced into a human osteosarcoma-derived cell strain Saos-2 (ATCC HTB85), and the resulting cell was defined as E2F responsive reporter cell. 2×10^6 cells of the Saos-2 cultured in the presence of 5% CO2 in the medium A at 37° C. were suspended in K-PBS buffer (50 μl) [137 mM KCl, 2.7 mM NaCl, 8.1 mM Na2HPO4, 1.5 mM KH2PO4, 4 mM MgCl2], followed by addition of 1 μg/μl plasmid pE2FII-1 luc2 (4 μg) prepared above. […]

Row | Compound | Inhibition ratio (%) ([1]; 1 μM test compound) | Inhibition ratio (%) ([1]; 10 μM test compound) | Inhibition ratio (%) ([1]; 100 μM test compound) | Inhibition ratio (%) [2] | Inhibition ratio (%) [3] | Inhibition ratio (%) ([4]; 1 μM) | Inhibition ratio (%) ([4]; 10 μM) | Inhibition ratio (%) ([1]; 25 μM test compound)
1 | Ac-NESAYDQKNIRRRVYDALNVLMAMNIIS-NH2 [Compound Ib-1] | 13.7% | 52.9% | 87.6% | 83% | 73% | – | – | –
2 | Ac-Ala-Arg-Gly-Arg-Gly-Arg-His-Pro-Gly-Lys-Gly-Val-Lys-Ser-Pro-Gly-Glu-Arg-Ser-Arg-Tyr-Glu-Thr-Ser-Leu-Asn-Leu-Thr-Thr-Lys-Arg-Phe-Leu-Glu-Leu-NH2 (Ac-ARGRGRHPGKGVKSPGERSRYETSLNLTTKRFLEL-NH2) [Compound Ic-1] | – | – | – | – | – | 17% | 28% | –
3 | CCCCCCCCCCCC(=O)N[C@@H](CC(N)=O)C(=O)N[C@@H](CCC(=O)O)C(=O)N[C@@H](CO)C(=O)N[C@@H](C)C(=O)N[C@@H](Cc1ccc(O)cc1)C(=O)N[C@@H](CC(=O)O)C(=O)N[C@@H](CCC(N)=O)C(=O)N[C@@H](CCCCN)C(=O)N[C@@H](CC(N)=O)C(=O)N[C@H](C(=O)N[C@@H](CCCNC(=N)N)C(=O)N[C@@H](CCCNC(=N)N)C(=O)N[C@@H](CCCNC(=N)N)C(=O)N[C@H](C(=O)N[C@@H](Cc1ccc(O)cc1)C(=O)N[C@@H](CC(=O)O)C(=O)N[C@@H](C)C(=O)N[C@@H](CC(C)C)C(=O)N[C@@H](CC(N)=O)C(=O)N[C@H](C(=O)N[C@@H](CC(C)C)C(=O)N[C@@H](CCSC)C(=O)N[C@@H](C)C(=O)N[C@@H](CCSC)C(=O)N[C@@H](CC(N)=O)C(=O)N[C@H](C(=O)N[C@H](C(=O)N[C@@H](CO)C(N)=O)[C@@H](C)CC)[C@@H](C)CC)C(C)C)C(C)C)[C@@H](C)CC [Compound Ib-3] (Lauroyl-NESAYDQKNIRRRVYDALNVLMAMNIIS-NH2) | – | – | 49.5% | – | – | – | – | 17.9%

— US6713449B1, “E2F activity inhibitory compounds” (Kyowa Hakko Kogyo Co., Ltd., priority 1996, dated 2004)
